In ChEMBL document CHEMBL1140020, “Synthesis and biological evaluation of 4'-(6,7-disubstituted-2,4-dihydro-indeno[1,2-c]pyrazol-3-yl)-biphenyl-4-ol as potent Chk1 inhibitors” (Bioorg Med Chem Lett, 2007):
Active and inactive are the calls of the source. The calls are words filed in the database; no cut-off is given here.

Key:
[1] = biological target: T1, Serine/threonine-protein kinase Chk1 (Homo sapiens, UniProt O14757); assay: Inhibition of Chk1
T1 sequence (O14757 whole entry): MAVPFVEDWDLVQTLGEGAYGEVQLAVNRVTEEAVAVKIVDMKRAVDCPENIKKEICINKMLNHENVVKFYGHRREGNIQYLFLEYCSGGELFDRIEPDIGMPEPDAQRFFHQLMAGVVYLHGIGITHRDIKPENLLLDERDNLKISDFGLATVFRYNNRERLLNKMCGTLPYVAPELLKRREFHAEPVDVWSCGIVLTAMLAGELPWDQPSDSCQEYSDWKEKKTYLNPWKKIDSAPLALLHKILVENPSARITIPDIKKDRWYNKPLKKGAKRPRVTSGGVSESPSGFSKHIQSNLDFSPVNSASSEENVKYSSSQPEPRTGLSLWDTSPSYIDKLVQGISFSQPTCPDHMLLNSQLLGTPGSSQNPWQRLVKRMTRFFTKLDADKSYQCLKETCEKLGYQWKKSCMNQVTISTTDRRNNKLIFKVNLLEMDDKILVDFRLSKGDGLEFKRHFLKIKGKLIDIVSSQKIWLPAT

[2] = Cell cycle arrest in H1299 cells by accumulation at G2/M phase by FACS analysis; type: functional, cell-based; details: Homo sapiens, NCI-H1299
HeLa = assay: Cytotoxicity against HeLa cells by MTS assay; type: cell-based; details: Homo sapiens
NCI-H1299 = assay: Inhibition of doxorubicin-induced cell cycle arrest in H1299 cells by accumulation at G2/M phase by FACS analysis; type: functional, cell-based; details: Homo sapiens
SW-620 = assay: Inhibition of camptothecin-induced cell cycle arrest in SW620 cells by accumulation at S phase by FACS analysis; type: functional, cell-based; details: Homo sapiens

In the case of COc1cc2c(cc1OC(C)CN(C)C)Cc1c-2n[nH]c1-c1ccc(-c2ccc(O)cc2)cc1 (stereo unspecified), the IC50 [1] is reported as 0.002 µM.
With CCN(CC)CC(CN(CC)CC)Oc1cc2c(cc1OC)Cc1c(-c3ccc(-c4ccc(O)cc4)cc3)n[nH]c1-2 the IC50 [1] was 0.002 µM.
For COc1cc2c(cc1OCCCN1CCCCC1)Cc1c-2n[nH]c1-c1ccc(-c2ccc(O)cc2)cc1, the EC50 [2] was > 10 µM, the EC50 (HeLa) was 2.3 µM and the EC50 (NCI-H1299) was 0.4 µM. The IC50 [1] was 0.004 µM.
With COc1cc2c(cc1OC(=O)NCCN(C)C)-c1[nH]nc(-c3ccc(-c4ccc(O)cc4)cc3)c1C2 the IC50 [1] was 0.04 µM.
With COc1cc2c(cc1OC(CO)CO)Cc1c-2n[nH]c1-c1ccc(-c2ccc(O)cc2)cc1 the IC50 [1] was < 0.0001 µM.
COc1cc2c(cc1OCC(C)CN(C)C)-c1n[nH]c(-c3ccc(-c4ccc(O)cc4)cc3)c1C2 (stereo unspecified) showed an EC50 (HeLa) of 1.6 µM and an IC50 [1] of 0.0006 µM.
For COc1cc2c(cc1OCCCN1CCN(C)CC1)-c1n[nH]c(-c3ccc(-c4ccc(O)cc4)cc3)c1C2, the IC50 [1] was 0.0002 µM.
For COc1cc2c(cc1OCCN1CCCCC1)Cc1c-2n[nH]c1-c1ccc(-c2ccc(O)cc2)cc1, the IC50 [1] was 0.001 µM.
For COc1cc2c(cc1OCCN1CCOCC1)-c1n[nH]c(-c3ccc(-c4ccc(O)cc4)cc3)c1C2, the IC50 [1] was 0.005 µM.
Work on COc1cc2c(cc1OCCCN1CCN(c3cccc(Cl)c3)CC1)-c1n[nH]c(-c3ccc(-c4ccc(O)cc4)cc3)c1C2 yielded an IC50 [1] of 0.01 µM.
In the case of COc1cc2c(cc1OCCn1ccnc1)-c1n[nH]c(-c3ccc(-c4ccc(O)cc4)cc3)c1C2, the EC50 (HeLa) is reported as 1.9 µM and the IC50 [1] is reported as 0.003 µM.
In the case of COc1cc2c(cc1OCc1cccnc1)Cc1c-2n[nH]c1-c1ccc(-c2ccc(O)cc2)cc1, the EC50 (HeLa) is reported as > 59.3 µM and the IC50 [1] is reported as 0.018 µM.
COc1cc2c(cc1OCCn1ccnc1)Cc1c-2n[nH]c1-c1ccc(-c2ccc(O)cc2)cc1 showed an IC50 [1] of 0.005 µM.
With COc1cc2c(cc1OC(=O)NCCN1CCOCC1)-c1[nH]nc(-c3ccc(-c4ccc(O)cc4)cc3)c1C2 the IC50 [1] was 0.074 µM.
COc1cc2c(cc1OC(C)CN(C)C)-c1n[nH]c(-c3ccc(-c4ccc(O)cc4)cc3)c1C2 (stereo unspecified) gave an IC50 [1] of 0.002 µM.
In the case of COc1cc2c(cc1OCC[C@@H]1CCCN1)Cc1c(-c3ccc(-c4ccc(O)cc4)cc3)n[nH]c1-2, the IC50 [1] is reported as 0.002 µM.
For COc1cc2c(cc1OC(F)(F)F)-c1[nH]nc(-c3ccc(-c4ccc(O)cc4)cc3)c1C2, the IC50 [1] was 0.29 µM.
With COc1cc2c(cc1OC1CCOCC1)Cc1c(-c3ccc(-c4ccc(O)cc4)cc3)n[nH]c1-2 the IC50 [1] was 0.0002 µM.
With COc1cc2c(cc1OCc1ccccn1)Cc1c(-c3ccc(-c4ccc(O)cc4)cc3)n[nH]c1-2 the IC50 [1] was 0.02 µM.
For COc1cc2c(cc1OCc1ccccn1)-c1n[nH]c(-c3ccc(-c4ccc(O)cc4)cc3)c1C2, the EC50 [2] was > 50 µM, the EC50 (HeLa) was > 59.3 µM and the EC50 (NCI-H1299) was 0.8 µM. For the same molecule, the IC50 [1] was 0.024 µM.
With COc1cc2c(cc1OC(=O)NCc1ccccn1)-c1[nH]nc(-c3ccc(-c4ccc(O)cc4)cc3)c1C2 the IC50 [1] was 0.048 µM.
In the case of COc1cc2c(cc1OCCN1CCCC1)Cc1c(-c3ccc(-c4ccc(O)cc4)cc3)n[nH]c1-2, the IC50 [1] is reported as 0.0008 µM.
In the case of COc1cc2c(cc1OCCc1cccnc1)Cc1c(-c3ccc(-c4ccc(O)cc4)cc3)n[nH]c1-2, the IC50 [1] is reported as 0.013 µM.
COc1cc2c(cc1OCCCN1CCN(c3ccccc3OC)CC1)Cc1c(-c3ccc(-c4ccc(O)cc4)cc3)n[nH]c1-2 showed an IC50 [1] of 0.025 µM.
With COc1cc2c(cc1OC1CCOC1)Cc1c-2n[nH]c1-c1ccc(-c2ccc(O)cc2)cc1 (stereo unspecified) the EC50 (HeLa) was 49 µM and the IC50 [1] was 0.0004 µM.
In the case of COc1cc2c(cc1OC[C@H]1CC=CCC1)Cc1c-2n[nH]c1-c1ccc(-c2ccc(O)cc2)cc1, the IC50 [1] is reported as 0.0007 µM.
With COc1cc2c(cc1OCCc1ccccn1)Cc1c-2n[nH]c1-c1ccc(-c2ccc(O)cc2)cc1 the EC50 [2] was > 10 µM, the EC50 (HeLa) was 3.4 µM and the EC50 (NCI-H1299) was 0.6 µM. The IC50 [1] was 0.03 µM.
With CCc1ccc(CCOc2cc3c(cc2OC)-c2n[nH]c(-c4ccc(-c5ccc(O)cc5)cc4)c2C3)nc1 the EC50 [2] was > 10 µM, the EC50 (HeLa) was 29.4 µM and the EC50 (NCI-H1299) was 0.5 µM. For the same molecule, the IC50 [1] was 0.023 µM.
Molecule COc1cc2c(cc1OCCCN1CCN(c3cccc(Cl)c3)CC1)Cc1c-2n[nH]c1-c1ccc(-c2ccc(O)cc2)cc1 has an IC50 [1] of 0.008 µM.
For COc1cc2c(cc1OCc1ccncc1)Cc1c-2n[nH]c1-c1ccc(-c2ccc(O)cc2)cc1, the EC50 (HeLa) was 3.2 µM and the IC50 [1] was 0.008 µM.
COc1cc2c(cc1O)Cc1c(-c3ccc(-c4ccc(O)cc4)cc3)n[nH]c1-2 showed an IC50 [1] of 0.001 µM.
Work on COc1cc2c(cc1OCCN1CCOCC1)Cc1c(-c3ccc(-c4ccc(O)cc4)cc3)n[nH]c1-2 yielded an IC50 [1] of 0.002 µM.
Work on COc1cc2c(cc1OCCCN(C)C)Cc1c-2n[nH]c1-c1ccc(-c2ccc(O)cc2)cc1 yielded an EC50 (HeLa) of 0.8 µM and an IC50 [1] of 0.0007 µM.
With COc1cc2c(cc1OCc1cccnc1)-c1n[nH]c(-c3ccc(-c4ccc(O)cc4)cc3)c1C2 the EC50 [2] was > 50 µM, the EC50 (HeLa) was 35.2 µM and the EC50 (NCI-H1299) was 0.3 µM. It also gave an IC50 [1] of 0.023 µM.
Molecule COc1cc2c(cc1OCC1CCOC1)Cc1c-2n[nH]c1-c1ccc(-c2ccc(O)cc2)cc1 (stereo unspecified) has an IC50 [1] of 0.0008 µM.
Work on CCN1CCCC(Oc2cc3c(cc2OC)Cc2c-3n[nH]c2-c2ccc(-c3ccc(O)cc3)cc2)C1 (stereo unspecified) yielded an IC50 [1] of 0.0006 µM.
Molecule COc1cc2c(cc1OCCC1CCCN1C)-c1[nH]nc(-c3ccc(-c4ccc(O)cc4)cc3)c1C2 (stereo unspecified) has an IC50 [1] of 0.0008 µM.
For COc1cc2c(cc1OCCN(C)C)-c1[nH]nc(-c3ccc(-c4ccc(O)cc4)cc3)c1C2, the IC50 [1] was 0.0008 µM.
COc1cc2c(cc1OCCN(C)C)Cc1c-2n[nH]c1-c1ccc(-c2ccc(O)cc2)cc1 gave an IC50 [1] of 0.002 µM.
With COc1cc2c(cc1OC[C@@H](O)CO)Cc1c-2n[nH]c1-c1ccc(-c2ccc(O)cc2)cc1 the EC50 (HeLa) was 3.5 µM and the IC50 [1] was 0.0001 µM.
Work on COc1cc2c(cc1O)-c1[nH]nc(-c3ccc(-c4ccc(O)cc4)cc3)c1C2 yielded an IC50 [1] of 0.005 µM.
With COc1cc2c(cc1OCCc1ccncc1)Cc1c-2n[nH]c1-c1ccc(-c2ccc(O)cc2)cc1 the IC50 [1] was 0.005 µM.
COc1cc2c(cc1OCCCN1CCOCC1)Cc1c-2n[nH]c1-c1ccc(-c2ccc(O)cc2)cc1 showed an EC50 (HeLa) of 4.3 µM and an IC50 [1] of 0.006 µM.
For COc1cc2c(cc1CCOCCCc1cccc(C)n1)Cc1c-2n[nH]c1-c1ccc(-c2ccc(O)cc2)cc1, the EC50 [2] was > 10 µM, the EC50 (HeLa) was 4.1 µM and the EC50 (NCI-H1299) was 0.4 µM. The IC50 [1] was 0.062 µM.
For COc1cc2c(cc1OC)-c1n[nH]c(-c3ccc(-c4ccc(O)cc4)cc3)c1C2, the EC50 [2] was > 50 µM, the EC50 (HeLa) was > 59.3 µM and the Activity (SW-620) was “Active”. It also gave an EC50 (NCI-H1299) of 0.2 µM.
COc1cc2c(cc1OCc1ccncc1)-c1[nH]nc(-c3ccc(-c4ccc(O)cc4)cc3)c1C2 showed an IC50 [1] of 0.036 µM.
With COc1cc2c(cc1OC[C@H](O)CO)Cc1c-2n[nH]c1-c1ccc(-c2ccc(O)cc2)cc1 the EC50 [2] was > 50 µM, the EC50 (HeLa) was 7.7 µM and the EC50 (NCI-H1299) was 0.2 µM. It also gave an IC50 [1] of 0.0001 µM.
With COc1cc2c(cc1OCCN1CCCC1)-c1[nH]nc(-c3ccc(-c4ccc(O)cc4)cc3)c1C2 the IC50 [1] was 0.002 µM.
For COc1cc2c(cc1OC(=O)NCCN1CCCC1)-c1[nH]nc(-c3ccc(-c4ccc(O)cc4)cc3)c1C2, the IC50 [1] was 0.021 µM.
